pIC50: −log10 of the molar value.
What was measured:
CDK12 wt/CycK = CDK12 wt/CycK (Homo sapiens (Human), UniProt Q9NYV4); experiment: Radiometric protein kinase assay (33PanQinase Activity Assay), Assay Condition A (thiol containing conditions); assay type: biochemical; conditions: thiol containing conditions (1.2 mM DTT), ATP 0.3 μM; read-out: CDK12 IC50 Condition A
How it was run: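 Recombinant human kinase incubated with [33P]ATP, substrate and compound (10 concentrations, 1×10^−04M to 3×10^−09M, singlicate, 1% DMSO) under thiol-containing buffer conditions, 60 min at 30 °C. 33Pi incorporation counted by scintillation; residual activity normalised to no-inhibitor and no-kinase controls, IC50 derived.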

CDK12 = CDK12 (Homo sapiens (Human), UniProt Q9NYV4); experiment: Radiometric protein kinase assay (33PanQinase Activity Assay), Assay Condition B (thiol-free conditions); assay type: biochemical; conditions: thiol-free conditions (1 mM TCEP, glutathione removed)
Experimental: Example 2—Assay Condition B (Thiol-Free Conditions)
The IC50 profile of compounds was determined using one protein kinase in a customized, thiol free assay. […] Prior to testing, the 1×10^−03 M stock solutions in column 2 of the master plates were subjected to a serial, semi-logarithmic dilution using 100% DMSO as a solvent. […] Column 1 and 7 were filled with 100% DMSO as controls. Subsequently, 2×10 microliter from each well of the serial diluted copy plates were aliquoted with a 96 channel pipettor into two identical sets of “compound dilution plates”. All plates were barcoded for automated identification and tracking purposes. […] All compounds were stored as powder until being solubilized in DMSO. Solubilized compounds were stored as 1×10^−02 M/100% DMSO stock solutions. Prior to the assay process, 90 microliters of H2O were added to each well of a set of compound dilution plates. To minimize potential precipitation, the H2O was added to each plate only a few minutes before the transfer of the compound solutions into the assay plates. Each plate was shaken thoroughly, resulting in compound dilution plates with a final of 10% DMSO. For each assay, 5 microliters of solution from each well of the compound dilution plates/10% DMSO were transferred into the assay plate. The final volume of the assay was 50 μl. All compounds were tested at 10 final assay concentrations in the range from 1×10^−05 M to 3×10^−10 M, in singlicate. The final DMSO concentration in the reaction cocktails was 1% in all cases. A radiometric protein kinase assay (33PanQinase® Activity Assay) was used for measuring the kinase activity of the protein kinase. All kinase assays were performed in 96-well FlashPlates™ from PerkinElmer (Boston, Mass., USA) in a 50 microliter reaction volume. The reaction cocktail was pipetted in four steps in the following order: 20 microliter of assay buffer (standard buffer)·5 microliter of ATP solution (in H2O)·5 microliter of test compound (in 10% DMSO)·20 microliter enzyme/substrate mix. […] For all experiments labeled as “Thiol-free”, all glutathione was exchanged from protein preparations so as to be removed from the assay and final buffer conditions contained no thiol-containing reagents. This was done so there would be no interference with the key cysteines in the proteins of interest.
For data analysis, the median value of the counts in column 1 (n=8) of each assay plate was defined as “low control”. This value reflects unspecific binding of radioactivity to the plate in the absence of a protein kinase but in the presence of the substrate. The median value of the counts in column 7 of each assay plate (n=8) was taken as the “high control”, i.e. full activity in the absence of any inhibitor. The difference between high and low control was taken as 100% activity. As part of the data evaluation the low control value from a particular plate was subtracted from the high control value as well as from all 80 “compound values” of the corresponding plate. The residual activity (in %) for each well of a particular plate was calculated by using the following formula: Res. Activity (%)=100×[(cpm of compound−low control)/(high control−low control)]
The residual activities for each concentration and the compound IC50 values were calculated using Quattro Workflow V3.1.1 (Quattro Research GmbH, Munich, Germany; www.quattro-research.com). […] The fitting method used was a least-squares fit. As a parameter for assay quality, the Z′-factor (Zhang et al., J. Biomol. Screen. 2: 67-73, 1999) for the low and high controls of each assay plate (n=8) was used. ProQinase's criterion for repetition of an assay plate is a Z′-factor below 0.4 (Iversen et al., J. Biomol. Screen. 3: 247-252, 2006).

[1] = test system: panel of 1,151 cancer cell lines; conditions: in 52% of 1,151 cancer cell lines; cited from earlier work

Sequence of CDK12 wt/CycK (Q9NYV4 whole entry): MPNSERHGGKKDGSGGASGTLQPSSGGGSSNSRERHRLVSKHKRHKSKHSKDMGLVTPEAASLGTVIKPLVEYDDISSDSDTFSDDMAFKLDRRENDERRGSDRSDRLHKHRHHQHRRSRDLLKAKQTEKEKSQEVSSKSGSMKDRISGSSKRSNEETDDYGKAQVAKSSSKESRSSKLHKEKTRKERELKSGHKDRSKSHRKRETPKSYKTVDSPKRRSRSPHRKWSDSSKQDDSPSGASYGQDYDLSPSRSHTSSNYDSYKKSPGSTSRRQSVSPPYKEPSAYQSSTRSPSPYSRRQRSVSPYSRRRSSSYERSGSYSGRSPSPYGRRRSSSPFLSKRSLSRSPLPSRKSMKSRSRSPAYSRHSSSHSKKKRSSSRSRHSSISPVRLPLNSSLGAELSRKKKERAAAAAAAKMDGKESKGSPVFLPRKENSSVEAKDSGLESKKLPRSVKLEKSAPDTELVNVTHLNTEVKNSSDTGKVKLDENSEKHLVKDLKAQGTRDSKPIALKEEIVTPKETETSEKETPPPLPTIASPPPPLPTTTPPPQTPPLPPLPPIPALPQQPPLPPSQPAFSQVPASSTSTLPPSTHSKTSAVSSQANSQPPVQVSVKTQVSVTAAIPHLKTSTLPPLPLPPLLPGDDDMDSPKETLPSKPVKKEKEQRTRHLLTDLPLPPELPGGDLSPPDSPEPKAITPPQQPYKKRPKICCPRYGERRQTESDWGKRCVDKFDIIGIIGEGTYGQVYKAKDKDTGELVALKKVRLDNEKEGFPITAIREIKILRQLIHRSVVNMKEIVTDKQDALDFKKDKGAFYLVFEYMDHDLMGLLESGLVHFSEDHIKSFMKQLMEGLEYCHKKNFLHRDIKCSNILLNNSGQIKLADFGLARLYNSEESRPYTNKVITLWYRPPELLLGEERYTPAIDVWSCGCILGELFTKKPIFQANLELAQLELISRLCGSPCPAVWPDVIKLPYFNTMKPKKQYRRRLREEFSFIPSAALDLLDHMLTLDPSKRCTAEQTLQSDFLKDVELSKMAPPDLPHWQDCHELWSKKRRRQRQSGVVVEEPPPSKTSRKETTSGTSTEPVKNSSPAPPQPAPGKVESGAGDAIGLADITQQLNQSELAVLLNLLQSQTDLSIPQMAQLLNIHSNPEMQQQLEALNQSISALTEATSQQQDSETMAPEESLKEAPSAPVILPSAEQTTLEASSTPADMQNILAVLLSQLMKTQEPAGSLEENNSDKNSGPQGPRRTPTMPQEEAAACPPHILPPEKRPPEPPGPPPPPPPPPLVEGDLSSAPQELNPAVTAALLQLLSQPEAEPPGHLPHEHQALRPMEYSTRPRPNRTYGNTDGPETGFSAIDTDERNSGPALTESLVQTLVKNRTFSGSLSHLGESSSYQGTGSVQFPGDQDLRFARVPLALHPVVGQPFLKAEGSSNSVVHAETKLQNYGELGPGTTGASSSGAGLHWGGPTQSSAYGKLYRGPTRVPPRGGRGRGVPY
Sequence of CDK12 wt/CycK (O75909 whole entry partner): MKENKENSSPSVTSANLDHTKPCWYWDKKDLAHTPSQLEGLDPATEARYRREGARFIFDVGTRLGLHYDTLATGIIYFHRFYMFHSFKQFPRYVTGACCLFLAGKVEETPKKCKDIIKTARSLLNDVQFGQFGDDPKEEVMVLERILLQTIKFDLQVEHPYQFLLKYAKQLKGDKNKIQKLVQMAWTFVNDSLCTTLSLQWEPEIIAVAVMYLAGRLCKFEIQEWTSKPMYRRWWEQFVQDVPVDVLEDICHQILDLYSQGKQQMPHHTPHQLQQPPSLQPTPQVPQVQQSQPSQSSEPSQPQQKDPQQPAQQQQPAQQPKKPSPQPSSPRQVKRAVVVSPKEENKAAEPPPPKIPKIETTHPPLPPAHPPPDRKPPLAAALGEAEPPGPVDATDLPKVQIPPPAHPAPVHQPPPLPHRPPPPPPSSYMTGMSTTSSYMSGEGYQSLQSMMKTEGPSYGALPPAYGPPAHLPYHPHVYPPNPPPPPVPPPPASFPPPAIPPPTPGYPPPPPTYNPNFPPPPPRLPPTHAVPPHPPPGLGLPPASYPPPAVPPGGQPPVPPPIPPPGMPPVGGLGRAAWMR
Sequence of CDK12 (Q9NYV4 whole entry): as the sequence (Q9NYV4 whole entry) above
Sequence of CDK12 (O75909 whole entry partner): as the sequence (O75909 whole entry partner) above

| SMILES | pIC50 (CDK12 wt/CycK) | pIC50 (CDK12) | pIC50 [1] |
| --- | --- | --- | --- |
| CCC(=O)Nc1ccc(C(=O)N2CC[C@@H](Nc3ncc(Br)cn3)C2)cc1 [Example 17, (R)—N-(4-(3-((5-bromopyrimidin-2-yl)amino)pyrrolidine-1-carbonyl)phenyl)propionamide] | 6.00 to 7.00 | 6.00 to 7.00 |  |
| C=CC(=O)Nc1ccc(C(=O)N2CC[C@@H](Nc3ncc(Br)cn3)C2)cc1 [Example 19, (R)—N-(4-(3-((5-bromopyrimidin-2-yl)amino)pyrrolidine-1-carbonyl)phenyl)acrylamide] | > 7.00 | > 7.00 |  |
| C=CC(=O)N(C)c1ccc(C(=O)N2CC[C@@H](Nc3ncc(Cl)c(OC)n3)C2)cc1 [Example 25, (R)—N-(4-(3-((5-chloro-4-methoxypyrimidin-2-yl)amino)pyrrolidine-1-carbonyl)phenyl)-N-methylacrylamide] | > 7.00 | > 7.00 |  |
| C=CC(=O)Nc1ccc(C(=O)N2CC[C@@H](Nc3ncc(Cl)c(OC)n3)C2)cc1C [Example 26, (R)—N-(4-(3-((5-chloro-4-methoxypyrimidin-2-yl)amino)pyrrolidine-1-carbonyl)-2-methylphenyl)acrylamide] | > 7.00 | > 7.00 |  |
| C=CC(=O)Nc1ccc(C(=O)N2CC[C@@H](Nc3ncc(Cl)cn3)C2)cc1C [Example 29, (R)—N-(4-(3-((5-chloropyrimidin-2-yl)amino)pyrrolidine-1-carbonyl)-2-methylphenyl)acrylamide] | 6.00 to 7.00 | > 7.00 |  |
| C=CC(=O)Nc1ccc(C(=O)N2CC[C@@H](Nc3ncc(Cl)c(OC)n3)C2)cc1 [Example 47, (R)—N-(4-(3-((5-chloro-4-methoxypyrimidin-2-yl)amino)pyrrolidine-1-carbonyl)phenyl)acrylamide] | > 7.00 | > 7.00 |  |
| C=CC(=O)Nc1ccc(C(=O)N2CC[C@@H](Nc3cnc(Cl)cn3)C2)cc1 [Example 53, (R)—N-(4-(3-((5-chloropyrazin-2-yl)amino)pyrrolidine-1-carbonyl)phenyl)acrylamide] | 6.00 to 7.00 | 6.00 to 7.00 |  |
| C=CC(=O)Nc1ccc(C(=O)N2CC[C@@H](Nc3ncc(F)c(OC)n3)C2)cc1 [Example 59, (R)—N-(4-(3-((5-fluoro-4-methoxypyrimidin-2-yl)amino)pyrrolidine-1-carbonyl)phenyl)acrylamide] | 5.00 to 6.00 | 6.00 to 7.00 |  |
| C=CC(=O)Nc1ccc(C(=O)N2CC[C@@H](Nc3ncc(Cl)c(NC)n3)C2)cc1 [Example 62, (R)—N-(4-(3-((5-chloro-4-(methylamino)pyrimidin-2-yl)amino)pyrrolidine-1-carbonyl)phenyl)acrylamide] | > 7.00 | > 7.00 |  |
| C=CC(=O)Nc1ccc(C(=O)N2CC[C@@H](Nc3ncc(Cl)c(C)n3)C2)cc1C [Example 80, (R)—N-(4-(3-((5-chloro-4-methylpyrimidin-2-yl)amino)pyrrolidine-1-carbonyl)-2-methylphenyl)acrylamide] |  | 6.00 to 7.00 |  |
| C=CC(=O)Nc1ccc(C(=O)N2CC[C@@H](Nc3ncc(Cl)c(OC)n3)C2)cc1-c1cnn(C)c1 [Example 82, (R)—N-(4-(3-((5-chloro-4-methoxypyrimidin-2-yl)amino)pyrrolidine-1-carbonyl)-2-(1-methyl-1H-pyrazol-4-yl)phenyl)acrylamide] |  | 6.00 to 7.00 |  |
| C=C(CC)C(=O)Nc1ccc(C(=O)N2CC[C@@H](Nc3ncc(Cl)cn3)C2)cc1 [Example 83, (R)—N-(4-(3-((5-chloropyrimidin-2-yl)amino)pyrrolidine-1-carbonyl)phenyl)-2-methylenebutanamide] |  | 6.00 to 7.00 |  |
| C=CC(=O)Nc1ccc(C(=O)N2CC[C@@H](Nc3ccc(C4CC4)cn3)C2)cc1 [Example 85, (R)—N-(4-(3-((5-cyclopropylpyridin-2-yl)amino)pyrrolidine-1-carbonyl)phenyl)acrylamide] |  | 6.00 to 7.00 |  |
| CN(C)C/C=C/C(=O)Nc1ccc(C(=O)Nc2cccc(Nc3ncc(Cl)c(-c4c[nH]c5ccccc45)n3)c2)cc1 [THZ1] |  |  | > 6.70 |

Continued, in another order:

| pIC50 (CDK12 wt/CycK) | pIC50 (CDK12) | SMILES | pIC50 [1] |
| --- | --- | --- | --- |
| > 7.00 | > 7.00 | CCC(=O)Nc1ccc(C(=O)N2CC[C@@H](Nc3ncc(Br)c(OC)n3)C2)cc1 [Example 14, (R)—N-(4-(3-((5-bromo-4-methoxypyrimidin-2-yl)amino)pyrrolidine-1-carbonyl)phenyl)propionamide] |  |
| > 7.00 | > 7.00 | C=CC(=O)Nc1ccc(C(=O)N2CC[C@@H](Nc3ncc(Br)c(OC)n3)C2)cc1 [Example 20, (R)—N-(4-(3-((5-bromo-4-methoxypyrimidin-2-yl)amino)pyrrolidine-1-carbonyl)phenyl)acrylamide] |  |
| 6.00 to 7.00 | 6.00 to 7.00 | C=CC(=O)N(C)c1ccc(C(=O)N2CC[C@@H](Nc3ncc(Cl)cn3)C2)cc1 [Example 28, (R)—N-(4-(3-((5-chloropyrimidin-2-yl)amino)pyrrolidine-1-carbonyl)phenyl)-N-methylacrylamide] |  |
| 6.00 to 7.00 | > 7.00 | C=CC(=O)Nc1ccc(C(=O)N2CC[C@@H](Nc3ncc(Cl)c(C)n3)C2)cc1 [Example 52, (R)—N-(4-(3-((5-chloro-4-methylpyrimidin-2-yl)amino)pyrrolidine-1-carbonyl)phenyl)acrylamide] |  |
| > 7.00 | > 7.00 | C=CC(=O)Nc1ccc(C(=O)N2CC[C@@H](Nc3cc(OC)c(Cl)cn3)C2)cc1 [Example 54, (R)—N-(4-(3-((5-chloro-4-methoxypyridin-2-yl)amino)pyrrolidine-1-carbonyl)phenyl)acrylamide] |  |
| 6.00 to 7.00 | > 7.00 | C=CC(=O)Nc1ccc(C(=O)N2CC[C@@H](Nc3cc(C)c(Cl)cn3)C2)cc1 [Example 55, (R)—N-(4-(3-((5-chloro-4-methylpyridin-2-yl)amino)pyrrolidine-1-carbonyl)phenyl)acrylamide] |  |
| 6.00 to 7.00 | > 7.00 | C=CC(=O)Nc1ccc(C(=O)N2CC[C@@H](Nc3ncc(C4CC4)cn3)C2)cc1 [Example 58, (R)—N-(4-(3-((5-cyclopropylpyrimidin-2-yl)amino)pyrrolidine-1-carbonyl)phenyl)acrylamide] |  |
|  | 6.00 to 7.00 | C=CC(=O)Nc1ccc(C(=O)N2CC[C@@H](Nc3ncc(C)c(OC4CC4)n3)C2)cc1 [Example 81, (R)—N-(4-(3-((4-cyclopropoxy-5-methylpyrimidin-2-yl)amino)pyrrolidine-1-carbonyl)phenyl)acrylamide] |  |
|  | 6.00 to 7.00 | C=CS(=O)(=O)Nc1ccc(C(=O)N2CC[C@@H](Nc3ncc(Cl)cn3)C2)cc1 [Example 84, (R)—N-(4-(3-((5-chloropyrimidin-2-yl)amino)pyrrolidine-1-carbonyl)phenyl)ethenesulfonamide] |  |
|  | 6.00 to 7.00 | C#Cc1cnc(N[C@@H]2CCN(C(=O)c3ccc(N(C)C(=O)C=C)cc3)C2)nc1 [Example 113, (R)—N-(4-(3-((5-ethynylpyrimidin-2-yl)amino)pyrrolidine-1-carbonyl)phenyl)-N-methylacrylamide] |  |

Reference: patent publication US10894788B2, “Inhibitors of cyclin-dependent kinases” (Kinnate Biopharma Inc., priority 2018, dated 2021)
